Laboratory results reported in ChEMBL document CHEMBL5620415, “Design, synthesis and anti-hepatic fibrosis activity of novel diphenyl vitamin D receptor agonists” (Eur J Med Chem, 2023).
pIC50: −log10 of the molar value. Calls of active or inactive are those of the source. No cut-off for these calls is given here.

Tests used:
Mus musculus [1] = test: Anti-fibrotic effect in bile duct ligation (BDL) surgery-induced hepatic fibrosis C57BL/6 mouse model assessed as reduction the lesions at 500 ug/kg, po five times a week for 2 weeks by Masson's Trichrome staining based assay; format: functional, organism-based; conditions: dose 500.0 µg/kg
Mus musculus [2] = test: Anti-fibrotic effect in improving CCl4-induced hepatic fibrosis C57BL/6 mouse model assessed as uniform liver parenchyma at 500 ug/kg, po five times a week for 2 weeks by qualitative ultrasound imaging analysis; format: functional, organism-based; conditions: dose 500.0 µg/kg
Mus musculus [3] = test: Anti-fibrotic effect in bile duct ligation (BDL) surgery-induced hepatic fibrosis C57BL/6 mouse model assessed as inhibition of collagen deposition in liver at 500 ug/kg, po five times a week for 2 weeks by Masson's Trichrome […] staining based assay; format: functional, organism-based; conditions: dose 500.0 µg/kg
Mus musculus [4] = test: Anti-fibrotic effect in CCl4-induced hepatic fibrosis C57BL/6 mouse model assessed as decrease in inflammatory cell infiltration at 500 ug/kg, po five times a week for 2 weeks by Masson's Trichrome staining based assay; format: functional, organism-based; conditions: dose 500.0 µg/kg
[5] = Cytotoxicity against human LX-2 cells by CCK-8 assay; format: toxicity, cell-based
Mus musculus [6] = test: Anti-fibrotic effect in bile duct ligation (BDL) surgery-induced hepatic fibrosis C57BL/6 mouse model assessed as inhibition of serum AST level at 500 ug/kg, po five times a week for 2 weeks; format: functional, organism-based; conditions: dose 500.0 µg/kg
[7] = target: T1, Vitamin D3 receptor (Homo sapiens) (UniProt P11473); test: Binding affinity to human full-length Vitamin D receptor assessed as relative binding affinity at 1 uM incubated for 2 hrs by fluorescence polarization based competitive binding assay relative to calcipotriol; conditions: filed as agonist
T1 sequence (whole entry): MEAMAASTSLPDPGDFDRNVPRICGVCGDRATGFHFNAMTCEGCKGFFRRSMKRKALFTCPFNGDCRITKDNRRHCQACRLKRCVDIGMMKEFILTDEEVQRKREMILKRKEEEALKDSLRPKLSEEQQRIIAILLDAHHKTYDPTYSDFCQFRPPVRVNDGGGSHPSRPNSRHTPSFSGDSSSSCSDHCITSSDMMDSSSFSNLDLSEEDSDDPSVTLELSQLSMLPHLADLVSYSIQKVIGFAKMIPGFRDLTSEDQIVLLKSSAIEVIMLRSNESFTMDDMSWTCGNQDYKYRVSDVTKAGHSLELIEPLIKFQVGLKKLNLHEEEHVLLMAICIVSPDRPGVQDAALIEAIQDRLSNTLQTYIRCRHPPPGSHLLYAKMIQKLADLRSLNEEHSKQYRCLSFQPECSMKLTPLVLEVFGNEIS

Mus musculus [8] = test: Anti-fibrotic effect in CCl4-induced hepatic fibrosis C57BL/6 mouse model assessed as reduction in hepatic fibrosis lesions at 500 ug/kg, po five times a week for 2 weeks by Masson's Trichrome staining based assay; format: functional, organism-based; conditions: dose 500.0 µg/kg
Mus musculus [9] = test: Anti-fibrotic effect in bile duct ligation (BDL) surgery-induced hepatic fibrosis C57BL/6 mouse model assessed as decrease in inflammatory cell infiltration at 500 ug/kg, po five times a week for 2 weeks by Hematoxylin-Eosin (H&E) staining based assay; format: functional, organism-based; conditions: dose 500.0 µg/kg
Mus musculus [10] = test: Anti-fibrotic effect in CCl4-induced hepatic fibrosis C57BL/6 mouse model assessed as reduction the lesions at 500 ug/kg, po five times a week for 2 weeks by Masson's Trichrome staining based assay; format: functional, organism-based; conditions: dose 500.0 µg/kg
Mus musculus [11] = test: Anti-fibrotic effect in bile duct ligation (BDL) surgery-induced hepatic fibrosis C57BL/6 mouse model assessed as inhibition of serum ALT level at 500 ug/kg, po five times a week for 2 weeks; format: functional, organism-based; conditions: dose 500.0 µg/kg
Mus musculus [12] = test: Anti-fibrotic effect in improving CCl4-induced hepatic fibrosis C57BL/6 mouse model assessed as inhibition of Ctgf expression in liver at 500 ug/kg, po five times a week for 2 weeks by RT-qPCR analysis; format: functional, organism-based; conditions: dose 500.0 µg/kg
Mus musculus [13] = test: Anti-fibrotic effect in bile duct ligation (BDL) surgery-induced hepatic fibrosis C57BL/6 mouse model assessed as reduction the lesions at 500 ug/kg, po five times a week for 2 weeks by Hematoxylin-Eosin (H&E) staining based assay; format: functional, organism-based; conditions: dose 500.0 µg/kg
Mus musculus [14] = test: Anti-fibrotic effect in bile duct ligation (BDL) surgery-induced hepatic fibrosis C57BL/6 mouse model assessed as inhibition of fibronectin (Fn) expression in liver at 500 ug/kg, po five times a week for 2 weeks by RT-qPCR analysis; format: functional, organism-based; conditions: dose 500.0 µg/kg
Mus musculus [15] = test: Anti-fibrotic effect in CCl4-induced hepatic fibrosis C57BL/6 mouse model assessed as reduction in hepatic fibrosis lesions at 500 ug/kg, po five times a week for 2 weeks by Hematoxylin-Eosin (H&E) staining based assay; format: functional, organism-based; conditions: dose 500.0 µg/kg
Mus musculus [16] = test: Anti-fibrotic effect in bile duct ligation (BDL) surgery-induced hepatic fibrosis C57BL/6 mouse model assessed as inhibition of serum total bile acid (TBA) level at 500 ug/kg, po five times a week for 2 weeks; format: functional, organism-based; conditions: dose 500.0 µg/kg
Mus musculus [17] = test: Anti-fibrotic effect in CCl4-induced hepatic fibrosis C57BL/6 mouse model assessed as inhibition of serum AST level at 500 ug/kg, po five times a week for 2 weeks; format: functional, organism-based; conditions: dose 500.0 µg/kg
Mus musculus [18] = test: Anti-fibrotic effect in CCl4-induced hepatic fibrosis C57BL/6 mouse model assessed as decrease in inflammatory cell infiltration at 500 ug/kg, po five times a week for 2 weeks by Hematoxylin-Eosin (H&E) staining based assay; format: functional, organism-based; conditions: dose 500.0 µg/kg
[19] = target: T1, Vitamin D3 receptor (Homo sapiens); test: Agonist activity at Vitamin D receptor in HEK293 cells assessed as receptor transactivation incubated for 48 hrs by dual-luciferase reporter assay; format: cell-based; conditions: filed as agonist, dose 0.01-1 µM
Mus musculus [20] = test: Anti-fibrotic effect in bile duct ligation (BDL) surgery-induced hepatic fibrosis C57BL/6 mouse model assessed as decrease in inflammatory cell infiltration at 500 ug/kg, po five times a week for 2 weeks by Masson's Trichrome staining based assay; format: functional, organism-based; conditions: dose 500.0 µg/kg
Mus musculus [21] = test: Anti-fibrotic effect in CCl4-induced hepatic fibrosis C57BL/6 mouse model assessed as inhibition of collagen deposition at 500 ug/kg, po five times a week for 2 weeks by Masson's Trichrome […] staining based assay; format: functional, organism-based; conditions: dose 500.0 µg/kg
Mus musculus [22] = test: Anti-fibrotic effect in CCl4-induced hepatic fibrosis C57BL/6 mouse model assessed as reduction the lesions at 500 ug/kg, po five times a week for 2 weeks by Hematoxylin-Eosin (H&E) staining based assay; format: functional, organism-based; conditions: dose 500.0 µg/kg
Mus musculus [23] = test: Anti-fibrotic effect in CCl4-induced hepatic fibrosis C57BL/6 mouse model assessed as inhibition of collagen deposition at 500 ug/kg, po five times a week for 2 weeks by Hematoxylin-Eosin (H&E) staining based assay; format: functional, organism-based; conditions: dose 500.0 µg/kg
Mus musculus [24] = test: Anti-fibrotic effect in CCl4-induced hepatic fibrosis C57BL/6 mouse model assessed as inhibition of proliferation of fibrous tissue at 500 ug/kg, po five times a week for 2 weeks by Hematoxylin-Eosin (H&E) staining based assay; format: functional, organism-based; conditions: dose 500.0 µg/kg
Mus musculus [25] = test: Anti-fibrotic effect in CCl4-induced hepatic fibrosis C57BL/6 mouse model assessed as inhibition of proliferation of fibrous tissue at 500 ug/kg, po five times a week for 2 weeks by Masson's Trichrome […] staining based assay; format: functional, organism-based; conditions: dose 500.0 µg/kg
Mus musculus [26] = test: Anti-fibrotic effect in CCl4-induced hepatic fibrosis C57BL/6 mouse model assessed as inhibition of serum total bile acid (TBA) level at 500 ug/kg, po five times a week for 2 weeks; format: functional, organism-based; conditions: dose 500.0 µg/kg
Mus musculus [27] = test: Anti-fibrotic effect in improving CCl4-induced hepatic fibrosis C57BL/6 mouse model assessed as inhibition of fibronectin (Fn) expression in liver at 500 ug/kg, po five times a week for 2 weeks by RT-qPCR analysis; format: functional, organism-based; conditions: dose 500.0 µg/kg

In the case of `OCc1ccc(/C=C/c2ccc(OCCCC(F)(F)F)cc2)cc1CO`, the Activity (Mus musculus [1]) was “Active”, the Activity (Mus musculus [2]) was “Active” and the Activity (Mus musculus [3]) was “Active”. For the same compound, the Activity (Mus musculus [4]) was “Active”, the pIC50 [5] was < 4.52 and the Activity (Mus musculus [6]) was “Active”. For the same compound, the RBA [7] was 51.4%, the Activity (Mus musculus [8]) was “Active” and the Activity (Mus musculus [9]) was “Active”. The Activity (Mus musculus [10]) was “Active”, the Activity (Mus musculus [11]) was “Active” and the Activity (Mus musculus [12]) was “Active”. The Activity (Mus musculus [13]) was “Active”, the Activity (Mus musculus [14]) was “Active” and the Activity (Mus musculus [15]) was “Active”. The Activity (Mus musculus [16]) was “Active”, the Activity (Mus musculus [17]) was “Active” and the Activity (Mus musculus [18]) was “Active”. For the same compound, the Activity [19] was “Dose-Dependent Effect”, the Activity (Mus musculus [20]) was “Active” and the Activity (Mus musculus [21]) was “Active”. For the same compound, the Activity (Mus musculus [22]) was “Active”, the Activity (Mus musculus [23]) was “Active” and the Activity (Mus musculus [24]) was “Active”. The Activity (Mus musculus [25]) was “Active”, the Activity (Mus musculus [26]) was “Active” and the Activity (Mus musculus [27]) was “Active”.
